Measurements from PubChem BioAssay (NCI).
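Assay format: 96-well plates, 48-hour exposure. TGI: total growth inhibition.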

Columns and labels:
Assay in all cases: NCI anticancer screen, dose series, 48 h
786-0 renal = tested on: 786-0 renal
A549 NSCLC = tested on: A549 NSCLC
ACHN renal = tested on: ACHN renal
CAKI-1 renal = tested on: CAKI-1 renal
CCRF-CEM leukemia = tested on: CCRF-CEM leukemia
COLO 205 colon = tested on: COLO 205 colon
DU-145 prostate = tested on: DU-145 prostate
EKVX NSCLC = tested on: EKVX NSCLC
HCC-2998 colon = tested on: HCC-2998 colon
HCT-116 colon = tested on: HCT-116 colon
HCT-15 colon = tested on: HCT-15 colon
HL-60(TB) leukemia = tested on: HL-60(TB) leukemia
HOP-62 NSCLC = tested on: HOP-62 NSCLC
HOP-92 NSCLC = tested on: HOP-92 NSCLC
HS 578T breast = tested on: HS 578T breast
HT29 colon = tested on: HT29 colon
IGROV1 ovarian = tested on: IGROV1 ovarian
K-562 leukemia = tested on: K-562 leukemia
KM12 colon = tested on: KM12 colon
LOX IMVI melanoma = tested on: LOX IMVI melanoma
M14 melanoma = tested on: M14 melanoma
MALME-3M melanoma = tested on: MALME-3M melanoma
MCF7 breast = tested on: MCF7 breast
MDA-MB-231 breast = tested on: MDA-MB-231 breast
MDA-MB-435 = tested on: MDA-MB-435
MDA-N = tested on: MDA-N
MOLT-4 leukemia = tested on: MOLT-4 leukemia
NCI-H226 lung = tested on: NCI-H226 lung
NCI-H23 lung = tested on: NCI-H23 lung
NCI-H460 lung = tested on: NCI-H460 lung
NCI-H522 lung = tested on: NCI-H522 lung
NCI/ADR-RES ovarian = tested on: NCI/ADR-RES ovarian
OVCAR-3 ovarian = tested on: OVCAR-3 ovarian
OVCAR-4 ovarian = tested on: OVCAR-4 ovarian
OVCAR-5 ovarian = tested on: OVCAR-5 ovarian
OVCAR-8 ovarian = tested on: OVCAR-8 ovarian
PC-3 prostate = tested on: PC-3 prostate
RPMI-8226 leukemia = tested on: RPMI-8226 leukemia
RXF 393 renal = tested on: RXF 393 renal
SF-268 CNS = tested on: SF-268 CNS
SF-295 CNS = tested on: SF-295 CNS
SF-539 CNS = tested on: SF-539 CNS
SK-MEL-2 melanoma = tested on: SK-MEL-2 melanoma
SK-MEL-28 melanoma = tested on: SK-MEL-28 melanoma
SK-MEL-5 melanoma = tested on: SK-MEL-5 melanoma
SK-OV-3 ovarian = tested on: SK-OV-3 ovarian
SN12C renal = tested on: SN12C renal
SNB-19 CNS = tested on: SNB-19 CNS
SNB-75 CNS = tested on: SNB-75 CNS
SR leukemia = tested on: SR leukemia
SW-620 colon = tested on: SW-620 colon
T-47D breast = tested on: T-47D breast
TK-10 renal = tested on: TK-10 renal
U251 CNS = tested on: U251 CNS
UACC-257 melanoma = tested on: UACC-257 melanoma
UACC-62 melanoma = tested on: UACC-62 melanoma
UO-31 renal = tested on: UO-31 renal

Measured: TGI

CSCCC(NCc1c(O)ccc2c(-c3ccccc3)cc(=O)oc12)C(=O)O (configuration not stated)
> 100 µM: all assays above
